Source: article PMC11089506 (Journal of Medicinal Chemistry, 2024)
pIC50, pKi: −log10 of the molar value. Entries after “also recorded” stand apart in the source; their conditions may differ. Counter-ions that a name gives are not always drawn. Like-named read-outs stand apart in the source and are kept apart here.

Tests used:
Adenosine receptor A2A = target: T1, Adenosine receptor A2A (Homo sapiens, UniProt P29274); assay: radioligand competition binding, [3H]CGS-21680
T1 construct: Eurofins

Purinergic receptor P2X = assay: radioligand competition binding, [3H]α,β-Methylene-ATP; design: species or system rat
β2 (adrenergic receptor) = target: T2, β2 (adrenergic receptor) (Homo sapiens, UniProt P07550); assay: radioligand competition binding, [3H](-)CGP 12177
T2 construct: Eurofins
T2 sequence (P07550 whole entry): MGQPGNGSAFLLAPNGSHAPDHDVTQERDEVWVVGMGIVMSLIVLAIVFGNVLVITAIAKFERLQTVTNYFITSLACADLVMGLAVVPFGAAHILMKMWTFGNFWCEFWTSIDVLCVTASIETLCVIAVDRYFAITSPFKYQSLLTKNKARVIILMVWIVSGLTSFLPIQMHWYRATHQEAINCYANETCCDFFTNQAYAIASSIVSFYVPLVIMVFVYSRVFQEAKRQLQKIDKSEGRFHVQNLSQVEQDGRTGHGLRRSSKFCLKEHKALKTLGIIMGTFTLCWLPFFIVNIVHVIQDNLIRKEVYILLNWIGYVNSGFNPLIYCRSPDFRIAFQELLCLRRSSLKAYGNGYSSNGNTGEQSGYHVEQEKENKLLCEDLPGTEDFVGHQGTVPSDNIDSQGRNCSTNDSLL

human 5-HT2BR = target: T3, human 5-HT2BR (Homo sapiens, UniProt P41595); assay: [125I]DOI competition binding assay
T3 construct: host or cells: HEK293 (membrane homogenates)
T3 sequence (P41595 whole entry): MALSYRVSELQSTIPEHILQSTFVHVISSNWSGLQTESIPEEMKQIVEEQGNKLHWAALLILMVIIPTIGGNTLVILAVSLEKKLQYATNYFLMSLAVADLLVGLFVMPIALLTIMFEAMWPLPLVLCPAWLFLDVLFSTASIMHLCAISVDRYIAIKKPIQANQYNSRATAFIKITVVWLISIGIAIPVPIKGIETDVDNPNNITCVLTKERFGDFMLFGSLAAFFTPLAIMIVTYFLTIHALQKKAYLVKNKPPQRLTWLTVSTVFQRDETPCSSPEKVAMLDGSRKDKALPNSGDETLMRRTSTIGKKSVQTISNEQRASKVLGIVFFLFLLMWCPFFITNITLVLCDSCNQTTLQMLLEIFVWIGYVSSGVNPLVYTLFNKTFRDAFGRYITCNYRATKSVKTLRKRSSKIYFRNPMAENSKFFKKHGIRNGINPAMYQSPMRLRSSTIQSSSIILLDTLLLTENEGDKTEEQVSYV
Procedure: (§1) Following incubation, the samples were filtered rapidly under vacuum through glass fiber filters (GF/B, Packard) presoaked with 0.3% polyethylenimine and rinsed several times with ice cold wash buffer (50 mM Tris-HCl, pH 7.4) using a 96-sample cell harvester (Unifilter, Packard). The filters were dried and then counted for radioactivity in a scintillation counter (Topcounter, Packard) using a scintillation cocktail (Microscint-0, Packard).

human 5-HT2CR [1] = target: T4, human 5-HT2CR (Homo sapiens, UniProt P28335); assay: [125I]DOI competition binding assay
T4 sequence (P28335 33-458): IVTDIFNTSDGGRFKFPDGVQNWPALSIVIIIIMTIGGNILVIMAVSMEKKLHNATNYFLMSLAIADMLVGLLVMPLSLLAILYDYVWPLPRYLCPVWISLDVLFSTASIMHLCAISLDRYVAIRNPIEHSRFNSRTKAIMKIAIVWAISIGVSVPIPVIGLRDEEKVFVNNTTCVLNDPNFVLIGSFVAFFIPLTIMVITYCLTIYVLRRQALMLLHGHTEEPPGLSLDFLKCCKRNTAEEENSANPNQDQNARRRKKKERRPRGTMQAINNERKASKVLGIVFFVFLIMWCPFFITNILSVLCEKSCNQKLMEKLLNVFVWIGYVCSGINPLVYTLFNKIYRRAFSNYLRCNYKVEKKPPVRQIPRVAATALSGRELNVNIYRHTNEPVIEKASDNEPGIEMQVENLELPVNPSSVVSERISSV
Procedure: as §1

[2] = target: NMDA receptor (Glutamate) (Rattus norvegicus, UniProt Q00959); assay: biochemical; conditions: read-out: % inhibition of the specific radioligand binding
5-HT5a = target: T5, 5-HT5a (Homo sapiens, UniProt P47898); assay: radioligand competition binding, [3H]LSD; conditions: read-out: % inhibition of the specific radioligand binding
T5 construct: Eurofins

[3] = target: T6, α1A (adrenergic receptor) (Homo sapiens, UniProt P35348); assay: radioligand competition binding, [3H]Prazosin
T6 construct: Eurofins
T6 sequence (P35348 whole entry): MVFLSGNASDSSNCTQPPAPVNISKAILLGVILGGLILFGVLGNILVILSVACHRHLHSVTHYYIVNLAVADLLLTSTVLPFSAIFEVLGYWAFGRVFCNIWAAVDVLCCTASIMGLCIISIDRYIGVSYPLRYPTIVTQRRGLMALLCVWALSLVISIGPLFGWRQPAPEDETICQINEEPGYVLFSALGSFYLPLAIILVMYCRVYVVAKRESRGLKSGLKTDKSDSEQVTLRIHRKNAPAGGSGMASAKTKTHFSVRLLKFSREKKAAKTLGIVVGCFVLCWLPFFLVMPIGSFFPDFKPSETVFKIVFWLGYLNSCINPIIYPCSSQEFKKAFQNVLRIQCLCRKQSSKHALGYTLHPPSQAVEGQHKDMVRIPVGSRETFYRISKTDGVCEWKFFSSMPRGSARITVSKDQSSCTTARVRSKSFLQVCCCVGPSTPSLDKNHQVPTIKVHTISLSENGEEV

Cannabinoid receptor CB1 = target: T7, Cannabinoid receptor CB1 (Homo sapiens, UniProt P21554); assay: radioligand competition binding, [3H]SR141716A
T7 construct: Eurofins
T7 sequence (P21554 whole entry): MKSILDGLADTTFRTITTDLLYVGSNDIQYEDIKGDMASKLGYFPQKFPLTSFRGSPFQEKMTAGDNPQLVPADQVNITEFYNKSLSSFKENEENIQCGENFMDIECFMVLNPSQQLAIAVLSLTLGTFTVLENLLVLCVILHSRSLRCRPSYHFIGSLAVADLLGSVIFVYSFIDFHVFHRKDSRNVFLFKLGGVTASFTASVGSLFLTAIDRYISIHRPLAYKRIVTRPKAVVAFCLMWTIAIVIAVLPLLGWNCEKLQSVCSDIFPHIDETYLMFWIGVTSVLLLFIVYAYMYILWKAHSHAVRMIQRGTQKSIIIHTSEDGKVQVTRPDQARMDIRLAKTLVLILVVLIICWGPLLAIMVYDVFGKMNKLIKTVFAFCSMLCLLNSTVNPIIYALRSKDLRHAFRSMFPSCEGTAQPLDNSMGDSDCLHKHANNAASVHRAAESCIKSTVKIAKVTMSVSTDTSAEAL

human 5-HT2CR [4] = target: T4, human 5-HT2CR; assay: Ca2+/Fluo-4 assay, agonist mode, stable 5-HT2CR-HEK293 cells
5-HT1D = target: T8, 5-HT1D (Rattus norvegicus, UniProt P28565); assay: radioligand competition binding, [3H]serotonin
T8 construct: Eurofins
T8 sequence (P28565 whole entry): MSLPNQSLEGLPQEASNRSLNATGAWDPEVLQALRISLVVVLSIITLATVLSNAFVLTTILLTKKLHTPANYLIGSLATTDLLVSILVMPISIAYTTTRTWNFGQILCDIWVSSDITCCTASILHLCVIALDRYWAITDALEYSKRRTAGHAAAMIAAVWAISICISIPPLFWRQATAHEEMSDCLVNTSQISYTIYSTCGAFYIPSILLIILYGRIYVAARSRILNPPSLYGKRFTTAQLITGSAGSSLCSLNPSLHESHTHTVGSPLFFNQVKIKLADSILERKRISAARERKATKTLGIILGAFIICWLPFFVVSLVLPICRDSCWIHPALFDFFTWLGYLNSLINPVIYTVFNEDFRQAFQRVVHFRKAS

5-HT7 = target: T9, 5-HT7 (Homo sapiens, UniProt P34969); assay: radioligand competition binding, [3H]LSD
T9 construct: Eurofins
T9 sequence (P34969 whole entry): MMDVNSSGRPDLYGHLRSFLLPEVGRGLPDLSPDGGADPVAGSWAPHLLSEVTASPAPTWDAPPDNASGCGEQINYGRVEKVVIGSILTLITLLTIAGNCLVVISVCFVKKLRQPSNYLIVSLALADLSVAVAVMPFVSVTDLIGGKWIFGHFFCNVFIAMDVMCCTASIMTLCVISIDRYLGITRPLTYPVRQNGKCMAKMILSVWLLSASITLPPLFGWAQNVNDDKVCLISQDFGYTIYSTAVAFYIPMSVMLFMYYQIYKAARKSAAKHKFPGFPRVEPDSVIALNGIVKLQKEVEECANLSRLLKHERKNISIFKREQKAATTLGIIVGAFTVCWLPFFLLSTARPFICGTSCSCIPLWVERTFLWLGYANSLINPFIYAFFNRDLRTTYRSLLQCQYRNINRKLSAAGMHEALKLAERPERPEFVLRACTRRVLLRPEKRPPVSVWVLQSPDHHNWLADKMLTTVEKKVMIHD

[5] = target: T10, D4.4 (dopaminergic receptor) (Homo sapiens, UniProt P21917); assay: radioligand competition binding, [3H]methyl-spiperone; conditions: read-out: % inhibition of the specific radioligand binding
T10 construct: Eurofins

[6] = tested on: various other targets (Table S4); assay: broad screen, radioligand binding competition assays (Eurofins), summary; conditions: high nanomolar or micromolar ranges
Glucocorticoid receptor = target: T11, Glucocorticoid receptor (Homo sapiens, UniProt P04150); assay: radioligand competition binding, [3H]Dexamethasone
T11 construct: Eurofins
T11 sequence (P04150 whole entry): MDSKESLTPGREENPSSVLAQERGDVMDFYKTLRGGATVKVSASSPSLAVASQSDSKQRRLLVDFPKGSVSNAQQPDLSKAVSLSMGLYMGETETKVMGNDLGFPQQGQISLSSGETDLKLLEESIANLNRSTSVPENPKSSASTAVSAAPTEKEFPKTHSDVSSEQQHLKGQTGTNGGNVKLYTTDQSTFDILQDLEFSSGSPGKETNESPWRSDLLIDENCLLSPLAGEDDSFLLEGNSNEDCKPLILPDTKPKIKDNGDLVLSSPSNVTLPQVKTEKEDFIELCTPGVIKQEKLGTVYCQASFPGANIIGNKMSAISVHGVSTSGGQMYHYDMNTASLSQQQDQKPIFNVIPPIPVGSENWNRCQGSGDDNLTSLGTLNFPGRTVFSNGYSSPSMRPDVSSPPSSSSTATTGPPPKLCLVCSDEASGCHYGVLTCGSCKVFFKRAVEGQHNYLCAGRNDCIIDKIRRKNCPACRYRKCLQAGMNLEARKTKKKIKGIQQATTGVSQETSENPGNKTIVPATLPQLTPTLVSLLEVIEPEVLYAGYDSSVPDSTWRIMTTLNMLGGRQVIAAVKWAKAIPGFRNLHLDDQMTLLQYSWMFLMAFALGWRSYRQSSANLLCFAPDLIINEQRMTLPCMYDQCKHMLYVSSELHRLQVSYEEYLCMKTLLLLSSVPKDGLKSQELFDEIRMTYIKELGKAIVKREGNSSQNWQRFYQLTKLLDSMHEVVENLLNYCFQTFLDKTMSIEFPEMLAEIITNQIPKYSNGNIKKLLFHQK

Androgen receptor (NHR) = Androgen receptor (NHR) (Homo sapiens, UniProt P10275); assay: biochemical; conditions: read-out: % inhibition of the specific radioligand binding
M1 (muscarinic receptor) = target: T12, M1 (muscarinic receptor) (Homo sapiens, UniProt P11229); assay: radioligand competition binding, [3H]pirenzepine
T12 construct: Eurofins
T12 sequence (P11229 1-460): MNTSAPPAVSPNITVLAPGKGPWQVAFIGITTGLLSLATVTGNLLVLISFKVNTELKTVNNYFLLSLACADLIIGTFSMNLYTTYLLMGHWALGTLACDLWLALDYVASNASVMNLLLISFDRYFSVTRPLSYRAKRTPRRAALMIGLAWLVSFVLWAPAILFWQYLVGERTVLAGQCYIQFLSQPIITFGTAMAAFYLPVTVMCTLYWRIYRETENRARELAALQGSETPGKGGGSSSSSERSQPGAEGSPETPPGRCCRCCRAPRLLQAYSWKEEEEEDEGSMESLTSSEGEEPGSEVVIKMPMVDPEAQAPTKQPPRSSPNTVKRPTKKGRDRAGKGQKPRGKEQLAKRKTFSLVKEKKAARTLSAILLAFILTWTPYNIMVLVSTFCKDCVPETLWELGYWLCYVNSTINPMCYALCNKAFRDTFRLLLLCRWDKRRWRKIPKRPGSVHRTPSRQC

M5 (muscarinic receptor) = target: T13, M5 (muscarinic receptor) (Homo sapiens, UniProt P08912); assay: radioligand competition binding, [3H]4-DAMP
T13 construct: Eurofins
T13 sequence (P08912 1-532): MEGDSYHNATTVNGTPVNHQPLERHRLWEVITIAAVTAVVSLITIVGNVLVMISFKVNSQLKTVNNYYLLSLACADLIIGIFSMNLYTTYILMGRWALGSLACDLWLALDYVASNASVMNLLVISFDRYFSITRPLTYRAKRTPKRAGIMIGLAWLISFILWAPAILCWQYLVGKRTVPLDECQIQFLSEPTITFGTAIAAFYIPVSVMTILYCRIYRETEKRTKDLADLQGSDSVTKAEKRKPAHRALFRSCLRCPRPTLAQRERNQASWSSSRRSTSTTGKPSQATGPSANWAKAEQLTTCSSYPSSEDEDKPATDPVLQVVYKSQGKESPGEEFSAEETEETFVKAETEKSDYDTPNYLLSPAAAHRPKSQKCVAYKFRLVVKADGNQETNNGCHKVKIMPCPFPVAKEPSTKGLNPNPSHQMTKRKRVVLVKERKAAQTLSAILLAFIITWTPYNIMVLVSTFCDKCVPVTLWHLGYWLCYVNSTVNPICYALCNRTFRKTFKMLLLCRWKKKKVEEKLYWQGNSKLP

Estrogen receptor ERα = target: T14, Estrogen receptor ERα (Homo sapiens, UniProt P03372); assay: radioligand competition binding, [3H]Estradiol
T14 construct: Eurofins
T14 sequence (P03372 whole entry): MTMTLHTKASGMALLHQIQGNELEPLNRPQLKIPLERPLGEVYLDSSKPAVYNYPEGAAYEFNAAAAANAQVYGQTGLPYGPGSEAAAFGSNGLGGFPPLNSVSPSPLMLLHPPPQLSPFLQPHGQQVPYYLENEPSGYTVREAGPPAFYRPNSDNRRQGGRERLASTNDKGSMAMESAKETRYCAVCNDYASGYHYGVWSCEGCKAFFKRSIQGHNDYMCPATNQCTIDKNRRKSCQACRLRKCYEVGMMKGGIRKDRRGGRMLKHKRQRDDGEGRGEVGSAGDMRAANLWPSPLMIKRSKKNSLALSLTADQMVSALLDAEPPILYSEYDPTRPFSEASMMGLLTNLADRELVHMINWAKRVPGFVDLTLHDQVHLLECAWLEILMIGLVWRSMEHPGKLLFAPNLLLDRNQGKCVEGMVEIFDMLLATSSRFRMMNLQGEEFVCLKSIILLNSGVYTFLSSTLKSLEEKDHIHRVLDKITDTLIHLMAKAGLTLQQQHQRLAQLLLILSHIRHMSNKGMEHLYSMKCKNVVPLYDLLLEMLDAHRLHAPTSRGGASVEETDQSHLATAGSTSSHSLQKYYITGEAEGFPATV

Bradykinin receptor B1 = target: T15, Bradykinin receptor B1 (Homo sapiens, UniProt P46663); assay: radioligand competition binding, [3H](Des-Arg10, Leu9)-Kallidin
T15 construct: Eurofins
T15 sequence (P46663 whole entry): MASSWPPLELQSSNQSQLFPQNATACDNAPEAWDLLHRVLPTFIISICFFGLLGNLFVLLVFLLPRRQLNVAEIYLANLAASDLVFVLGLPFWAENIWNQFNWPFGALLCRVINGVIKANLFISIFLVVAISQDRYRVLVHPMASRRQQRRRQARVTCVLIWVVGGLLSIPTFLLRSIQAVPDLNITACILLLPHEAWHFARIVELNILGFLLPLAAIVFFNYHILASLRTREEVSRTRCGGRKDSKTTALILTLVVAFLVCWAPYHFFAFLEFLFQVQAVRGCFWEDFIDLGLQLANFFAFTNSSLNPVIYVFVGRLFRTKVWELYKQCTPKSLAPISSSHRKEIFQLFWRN

[7] = target: Ca2+ Channel L-Type, (Benzothiazepine) (Rattus norvegicus, UniProt P22002); assay: biochemical; conditions: read-out: % inhibition of the specific radioligand binding
[8] = target: T16, Epidermal Growth Factor receptor (Homo sapiens, UniProt P00533); assay: radioligand competition binding, [125I]EGF
T16 construct: Eurofins

[9] = estimated from the % inhibition data
[10] = read-out: % inhibition of the specific radioligand binding

COc1cc(C(F)(F)F)c(OC)cc1[C@@H]1CCCNC1 [(S)-11, 3-(2,5-Dimethoxy-4-(trifluoromethyl)phenyl)piperidine Hydrochloride]
pIC50 (Adenosine receptor A2A; [9]): < 5.00 | inhibition at 10 µM (Adenosine receptor A2A; [10]): -19% | % inhibition of the specific radioligand binding (Purinergic receptor P2X; (S)-11 10 μM, n=1): -30% | pIC50 (Purinergic receptor P2X; [9]): < 5.00 | pIC50 (β2 (adrenergic receptor); [9]): ~5.00 | inhibition at 1 µM (β2 (adrenergic receptor); [10]): 2% | inhibition at 10 µM (β2 (adrenergic receptor); [10]): 55% | 5-HT2BR pKi ± S.E.M. (human 5-HT2BR; Table S3): 7.88 ± 0.07 | pKi (human 5-HT2BR; read-out: Ki at 5-HT2BR): 7.89 | 5-HT2CR pKi ± S.E.M. (human 5-HT2CR [1]; Table S3): 7.89 ± 0.10 | pKi (human 5-HT2CR [1]; read-out: Ki at 5-HT2CR): 7.89 | inhibition at 10 µM [2]: -8% | inhibition at 10 µM (5-HT5a): 4% | pIC50 [3, 9]: < 5.00 | inhibition at 10 µM [3, 10]: 32% | pIC50 (Cannabinoid receptor CB1; [9]): < 5.00 | inhibition at 10 µM (Cannabinoid receptor CB1; [10]): 14% | agonist activity at 5-HT2CR (in words) (human 5-HT2CR [4]): negligible agonist efficacy; also recorded: absence of measurable agonist efficacy | EC50 (human 5-HT2CR [4]; 5-HT2CR EC50 (nM), Table 1, at least 3 independent experiments): > 50000 nM | agonist activity at 5-HT2CR (in words) (human 5-HT2CR [4]; listed as 11eu): did not elicit measurable agonist activity | pIC50 (5-HT1D; [9]): 6.00 to 7.00 | inhibition at 0.1 µM (5-HT1D; [10]): 18% | inhibition at 1 µM (5-HT1D; [10]): 64% | inhibition at 10 µM (5-HT1D; [10]): 93% | pIC50 (5-HT7; [9]): 5.00 to 6.00 | inhibition at 1 µM (5-HT7; [10]): 17% | inhibition at 10 µM (5-HT7; [10]): 62% | inhibition at 10 µM [5]: 9% | binding affinities at the respective targets of the broad screen [6]: > 100 nM | pIC50 (Glucocorticoid receptor; [9]): < 5.00 | inhibition at 10 µM (Glucocorticoid receptor; [10]): 11% | inhibition at 10 µM (Androgen receptor (NHR)): 1% | pIC50 (M1 (muscarinic receptor); [9]): ~6.00 | inhibition at 1 µM (M1 (muscarinic receptor); [10]): 51% | inhibition at 10 µM (M1 (muscarinic receptor); [10]): 90% | pIC50 (M5 (muscarinic receptor); [9]): ~6.00 | inhibition at 0.1 µM (M5 (muscarinic receptor); [10]): 9% | inhibition at 1 µM (M5 (muscarinic receptor); [10]): 57% | inhibition at 10 µM (M5 (muscarinic receptor); [10]): 92% | pIC50 (Estrogen receptor ERα; [9]): < 5.00 | inhibition at 10 µM (Estrogen receptor ERα; [10]): -2% | pIC50 (Bradykinin receptor B1; [9]): < 5.00 | inhibition at 10 µM (Bradykinin receptor B1; [10]): 12% | inhibition at 10 µM [7]: 66% | pIC50 [8, 9]: < 5.00 | inhibition at 10 µM [8, 10]: -18%
